In patent US12251422B2, “Compositions and methods for treating neurological and other disorders” (Rush University Medical Center, priority 2018, dated 2025):

Assays:
[1] = tested on: mice with CIA; assay: Collagen-induced arthritis (CIA) in DBA/1J mice; type: in vivo, mouse; details: 1 mg/kg body wt/d i.p. from 29 dpi
Text: FIG. 7 (A-V). The wtTIDM, but not mTIDM, peptide protects mice from experimental allergic encephalomyelitis (EAE) and collagen-induced arthritis (CIA). […] Mice (n=6 per group in two independent experiments) were scored daily. […] On 22 dpi, general motor activities were monitored using the Ethovision XT 13.0 Open Field Activity System (Noldus) (B, heat-map images representing overall motor activities; C, distance travelled; D, rearing; E, velocity; F, acceleration) and rotorod (G). Foot print analysis (H, stride length; I, print length; J, sway length; K, toe spread) was also performed, L) CIA was induced in male DBA/1J mice by bovine type II collagen immunization and from 29 dpi, mice were treated with wtTIDM and mTIDM peptides (1 mg/kg body wt/d) via i.p. injection. Mice (n=6 per group in two independent experiments) were scored daily. […] On 60 dpi, general motor activities were monitored by Ethovision System (M, heat-map images representing overall motor activities; N, distance travelled; O, rearing; P, velocity), rotorod (Q) and grip strength (R). Foot print analysis (S, stride length; T, print length; U, sway length; V, toe spread) was also performed. Six mice (n=6 per group) were used in two independent experiments. ap<0.001 & bp<0.05 vs control; cp<0.001 & dp<0.05 vs EAE or CIA by two-sample t-tests.
FIG. 26 (A-D). Footprint analysis of mice with CIA after treatment with wtTIDM and mTIDM peptides. On the walking track, we applied white paper strips and obtained the footprints of mice of different groups (A, control; B, CIA; C, CIA+wtTIDM; D, CIA+mTIDM) on paper using black ink. A total of 30-40 steps for each group were determined. Four different footprint measurements (SL, PL, SWL, and TS) were calculated in centimeters from the recorded prints of mice. Six mice (n=6 per group) were used in two independent experiments.
Male DBA/1J mice (8-9 week old) were immunized intradermally at the base of the tail with 100 μg of bovine type II collagen emulsified in […] Freund's Adjuvant and M. tuberculosis H37RA. […]

[2] = biological target: T1, association between TLR2 and MyD88 (Mus musculus, UniProt Q9QUN7); assay: MyD88 immunoprecipitation / TLR2 western blot in BV-2 microglial cells; type: cell-based; details: BV-2 cells, peptides preincubated 1 h, 1 μM fibrillar Aβ1-42 for 1 h, serum-free
T1 construct: disrupt the physical association between endogenous TLR2 and MyD88; endogenous in cells; host or cells: BV-2 microglial cells
Experimental: FIG. 3(A-L). Selective disruption of TLR2 and MyD88 interaction by wtTIDM. In silico analyses of interactions of wtTIDM with TLR1, TLR4, TLR5, TLR6, TLR7, and TLR9. A rigid body interaction analyses were performed in pydock in silico analysis tool. […] G) BV-2 microglial cells preincubated with WtTIDM and mTIDM peptides for 1 h were stimulated with 1 μM fibrillar Aβ1-42 under serum-free condition. After 1 h, cellular extracts were immunoprecipitated with anti-MyD88 antibody followed by western blot of immunoprecipitates for TLR2. As control, cellular extracts were immunoprecipitated with normal IgG. Input was also immunoblotted with TLR2 and MyD88. H) Bands were scanned and values (TLR2/Input) presented as relative to control (n=2 replicates/condition in 3 independent experiments). Results were analyzed by two-sample t-tests. I) BV-2 microglial cells preincubated with wtTIDM and mTIDM peptides for 1 h were stimulated with LPS under serum-free condition. After 1 h, cellular extracts were immunoprecipitated with anti-MyD88 antibody followed by western blot of immunoprecipitates for TLR4. As control, cellular extracts were immunoprecipitated with normal IgG. Input was also immunoblotted with TLR4 and My D88. […] Results were analyzed by two-sample t-tests. […] Results were analyzed by two-sample t-tests.

[3] = tested on: p65 and p50; assay: Nuclear translocation of p65 and p50 in BV-2 microglial cells (Western blot); type: cell-based; details: 10 μM peptide 1 h, 1 μM fibrillar Aβ1-42
Experimental: FIG. 15 (A-F). Effect of wtTIDM peptide on fibrillar Aβ- and LPS-induced nuclear translocation of p65 and p50 in microglial cells. BV-2 microglial cells preincubated with 10 μM wtTIDM peptide for 1 h were stimulated with either 1 μM fibrillar Aβ1-42 (A-C) or 1 μg/ml LPS (D-F) under serum-free condition. At different minute intervals, levels of p65 and p50 (A, fibrillar Aβ; D, LPS) were monitored in nuclear extracts by Western blot. Histone H3 was run as a loading control. Bands were scanned and values of p65/H3 (B & E) and p50/H3 (C & F) are presented as relative to control (n=2 replicates/condition in 3 independent experiments). ap<0.05, bp<0.001 vs control; cp<0.01 vs 30 min stimulation; dp<0.05 vs 15 min stimulation; NS, not significant by two-sample t-tests.

T1 sequence (Q9QUN7 25-784): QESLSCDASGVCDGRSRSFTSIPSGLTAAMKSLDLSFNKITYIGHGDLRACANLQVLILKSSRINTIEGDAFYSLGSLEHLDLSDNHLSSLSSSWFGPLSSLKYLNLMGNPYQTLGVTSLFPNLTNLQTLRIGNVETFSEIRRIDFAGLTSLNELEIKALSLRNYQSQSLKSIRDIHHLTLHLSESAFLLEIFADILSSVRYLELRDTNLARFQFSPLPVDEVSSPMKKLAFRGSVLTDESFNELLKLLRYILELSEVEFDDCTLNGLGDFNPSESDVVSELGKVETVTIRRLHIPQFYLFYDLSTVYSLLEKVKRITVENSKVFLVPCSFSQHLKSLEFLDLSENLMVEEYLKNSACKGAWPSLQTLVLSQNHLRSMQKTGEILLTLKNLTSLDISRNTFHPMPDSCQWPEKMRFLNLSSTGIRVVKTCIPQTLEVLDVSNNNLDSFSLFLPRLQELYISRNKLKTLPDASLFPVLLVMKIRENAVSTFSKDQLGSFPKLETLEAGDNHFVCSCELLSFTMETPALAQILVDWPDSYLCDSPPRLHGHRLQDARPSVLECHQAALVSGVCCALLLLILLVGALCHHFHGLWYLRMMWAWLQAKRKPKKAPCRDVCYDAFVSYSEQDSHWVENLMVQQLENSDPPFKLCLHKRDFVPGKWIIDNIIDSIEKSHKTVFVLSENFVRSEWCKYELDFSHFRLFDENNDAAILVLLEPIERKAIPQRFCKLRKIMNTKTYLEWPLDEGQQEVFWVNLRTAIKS

SMILES: CC[C@H](C)[C@H](NC(=O)[C@H](CCCCN)NC(=O)[C@@H](NC(=O)[C@H](CCC(N)=O)NC(=O)[C@H](CCCNC(=N)N)NC(=O)[C@@H](N)CC(=O)O)[C@@H](C)CC)C(=O)N[C@@H](Cc1c[nH]c2ccccc12)C(=O)N[C@@H](Cc1ccccc1)C(=O)N[C@@H](CCC(N)=O)C(=O)N[C@@H](CC(N)=O)C(=O)N[C@@H](CCCNC(=N)N)C(=O)N[C@@H](CCCNC(=N)N)C(=O)N[C@@H](CCSC)C(=O)N[C@@H](CCCCN)C(=O)N[C@@H](Cc1c[nH]c2ccccc12)C(=O)N[C@@H](CCCCN)C(=O)N[C@@H](CCCCN)C(=O)N1CCC[C@H]1C(=O)NCC(=O)N[C@@H](C)C(=O)N[C@@H](Cc1c[nH]cn1)C(=O)N[C@@H](CCC(N)=O)C(=O)N[C@@H](CCCCN)C(=O)O [wtTIDM, drqikiwfqnrrmkwkkPGAHQK]
- clinical symptoms of CIA [1]: decreased
- footprint behavior in CIA mice ([1]; 60 dpi): improved
- locomotor activities in CIA mice ([1]; 60 dpi): enhanced
- inhibition of fibrillar Aβ1-42-increased association between TLR2 and MyD88 [2]: inhibited
- inhibition of nuclear translocation of p65 and p50, fibrillar Aβ1-42 [3]: inhibited
